Here are results for 21 molecules from patent US20220289724A1, “KIF18A INHIBITORS” (AMGEN INC., priority 2019, published 2022).

A word on the IC50: it is the concentration that inhibits the measured activity by half.

T1 sequence (Q8NI77 1-467): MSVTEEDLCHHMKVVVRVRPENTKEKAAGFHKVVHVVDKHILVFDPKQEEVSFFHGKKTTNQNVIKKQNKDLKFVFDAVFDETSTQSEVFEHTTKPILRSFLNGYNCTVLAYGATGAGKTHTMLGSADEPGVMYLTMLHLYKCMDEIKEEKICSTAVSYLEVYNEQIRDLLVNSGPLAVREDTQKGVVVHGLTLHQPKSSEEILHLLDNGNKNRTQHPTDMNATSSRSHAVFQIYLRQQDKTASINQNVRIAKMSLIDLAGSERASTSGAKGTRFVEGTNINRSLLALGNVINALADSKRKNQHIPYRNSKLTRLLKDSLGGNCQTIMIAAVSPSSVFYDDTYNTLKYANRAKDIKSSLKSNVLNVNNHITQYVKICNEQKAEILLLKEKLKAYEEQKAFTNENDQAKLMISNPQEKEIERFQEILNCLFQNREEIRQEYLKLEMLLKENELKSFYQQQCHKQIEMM
T1 sequence (P02550 whole entry partner): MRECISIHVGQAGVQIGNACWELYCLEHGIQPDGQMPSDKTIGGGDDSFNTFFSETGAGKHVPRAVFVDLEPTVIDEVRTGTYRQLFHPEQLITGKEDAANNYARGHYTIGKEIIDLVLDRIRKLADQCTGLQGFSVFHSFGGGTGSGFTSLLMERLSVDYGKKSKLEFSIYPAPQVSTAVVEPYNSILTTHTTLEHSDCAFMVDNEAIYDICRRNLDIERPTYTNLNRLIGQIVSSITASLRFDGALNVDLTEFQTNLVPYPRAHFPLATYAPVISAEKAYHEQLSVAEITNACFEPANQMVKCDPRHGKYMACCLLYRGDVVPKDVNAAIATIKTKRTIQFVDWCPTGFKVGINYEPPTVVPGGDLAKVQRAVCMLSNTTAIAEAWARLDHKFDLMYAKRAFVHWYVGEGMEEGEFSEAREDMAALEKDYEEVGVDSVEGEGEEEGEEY
T1 sequence (P02554 whole entry partner): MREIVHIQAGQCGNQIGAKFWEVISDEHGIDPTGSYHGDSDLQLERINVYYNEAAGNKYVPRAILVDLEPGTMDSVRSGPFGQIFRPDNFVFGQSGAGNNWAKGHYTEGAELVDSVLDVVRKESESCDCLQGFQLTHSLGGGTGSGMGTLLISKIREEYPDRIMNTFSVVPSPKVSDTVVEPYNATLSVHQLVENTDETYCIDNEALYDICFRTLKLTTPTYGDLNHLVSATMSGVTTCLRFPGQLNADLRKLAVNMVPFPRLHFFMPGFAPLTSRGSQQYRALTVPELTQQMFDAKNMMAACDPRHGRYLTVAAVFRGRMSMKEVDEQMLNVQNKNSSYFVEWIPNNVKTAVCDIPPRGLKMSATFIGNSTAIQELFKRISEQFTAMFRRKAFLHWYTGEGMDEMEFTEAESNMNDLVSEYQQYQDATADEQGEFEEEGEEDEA

This test concerns the target T1, Recombinant human KIF18A (1-467 His-tagged) protein (Homo sapiens, UniProt Q8NI77).
T1 construct: Recombinant human KIF18A (1-467 His-tagged) protein; His; made in house
Put plainly: KIF18A Enzyme Assay: microtubule-stimulated ATPase activity assay (ADP-Glo). The format is biochemical. Conditions: KIF18A protein 30 nM, 30 μg/mL pig microtubules, ATP at Km 75 μM, ADP-Glo luminescence, RT. An excerpt: KIF18A Enzyme Assay: Microtubule-stimulated ATPase activity assay is used to measure KIF18A enzyme activity after treatment with compound. Compounds were 2-fold serially diluted in DMSO (Sigma Inc) over 22-point concentration range. Recombinant human KIF18A (1-467 His-tagged) protein was expressed using a baculovirus system and purified by affinity chromatography by Amgen Inc. Concentrations of KIF18A protein, microtubules (MT), and ATP in the reaction were optimized for standardized homogenous enzyme assay using ADP-Glorm Kinase/ATPase Assay Kit (Promega Inc). The assay measures ADP formed from the ATPase reaction. […] Concentration-response curve-fitting and IC50 determination was performed using Genedata Screener Software (Standard 15.0.1, Genedata Inc) with a four-parameter logistic regression fit model.
Table A provides data for compounds exemplified in the present application and priority document thereof, as representative compounds of the present invention, as follows: chemical name (as named by either ACD software or ChemDraw (Professional 15.0)) and biological data (IC50 in μM). Ex. […] refers to Example No.
A general note: ADP-Glo first removes unused ATP, then detects ADP through luciferase.
In the case of `CC(C)(C)NS(=O)(=O)c1cccc(NC(=O)c2ccc(CS(=O)(=O)CCO)cc2N2CCC3(CC2)CC3)c1` [Example 100-12, N-(3-(N-(tert-butyl)sulfamoyl)phenyl)-4-(((2-hydroxyethyl)sulfonyl)methyl)-2-(6-azaspiro[2.5]octan-6-yl)benzamide], the half-inhibitory concentration (IC50) was 0.075 µM. On to `C[C@@H]1CN(c2cccc(NC(=O)c3ccc(NS(=O)(=O)CCO)cc3N3CCC4(CC3)CC4)c2)CCO1` [Example 103-1, (R)-4-((2-hydroxyethyl)sulfonamido)-N-(3-(2-methylmorpholino)phenyl)-2-(6-azaspiro[2.5]octan-6-yl)benzamide], for which the 50% inhibitory concentration (IC50) worked out at 0.071 µM. Consider `CC(C)S(=O)(=O)Nc1ccc(C(=O)Nc2cccc(S(=O)(=O)NC(C)(C)C)c2)c(N2CCC3(CC2)CC3)c1` [Example 102-3, N-(3-(N-(tert-butyl)sulfamoyl)phenyl)-4-((1-methylethyl)sulfonamido)-2-(6-azaspiro[2.5]octan-6-yl)benzamide], for which the IC50 was found to be 0.026 µM. As for `CC(C)(C)NS(=O)(=O)c1cccc(NC(=O)c2ccc(CS(C)(=O)=O)cc2N2CCC3(CC2)CC3)c1` [Example 100-11, N-(3-(N-(tert-butyl)sulfamoyl)phenyl)-4-((methylsulfonyl)methyl)-2-(6-azaspiro[2.5]octan-6-yl)benzamide], the figure is 0.051 µM; as for `Cn1nccc1-c1ccc(C(=O)Nc2cccc(S(=O)(=O)NC(C)(C)C)c2)c(N2CCC3(CC2)CC3)c1` [Example 109-1, N-(3-(N-(tert-butyl)sulfamoyl)phenyl)-4-(1-methyl-1H-pyrazol-5-yl)-2-(6-azaspiro[2.5]octan-6-yl)benzamide], 0.601 µM.

Take `CC(C)(C)NS(=O)(=O)c1cccc(NC(=O)c2ccc(S(N)(=O)=O)cc2N2CCC3(CC2)CC3)c1` [Example 107-8, N-(3-(N-(tert-butyl)sulfamoyl)phenyl)-2-(6-azaspiro[2.5]octan-6-yl)-4-sulfamoylbenzamide]: the IC50 was determined as 0.04 µM. As for `C[C@@H]1CN(c2cc(NC(=O)c3ccc(NS(=O)(=O)CCO)cc3N3CCC4(CC3)CC4)ccc2F)CCO1` [Example 103-4, (R)-N-(4-fluoro-3-(2-methylmorpholino)phenyl)-4-((2-hydroxyethyl)sulfonamido)-2-(6-azaspiro[2.5]octan-6-yl)benzamide], the concentration for half-maximal inhibition (IC50) worked out at 0.177 µM.

For the molecule `O=C(Nc1cccc(N2CCC(F)(F)CC2)c1)c1ccc(NS(=O)(=O)CCO)cc1N1CCC2(CC1)CC2` [Example 104-1, N-(3-(4,4-difluoropiperidin-1-yl)phenyl)-4-((2-hydroxyethyl)sulfonamido)-2-(6-azaspiro[2.5]octan-6-yl)benzamide], the IC50 was 0.012 µM. For `C[C@H](CO)S(=O)(=O)Nc1ccc(C(=O)Nc2cccc(S(=O)(=O)NC(C)(C)C)c2)c(N2CCC3(CC2)CC3)c1` (single isomer, unassigned) [Example 105-2], the half-inhibitory concentration (IC50) is 0.057 µM.

For the molecule `CC(C)(C)NS(=O)(=O)c1cccc(NC(=O)c2ccc(S(=O)(=O)NC3CC3)cc2N2CCC3(CC2)CC3)c1` [Example 107-6, N-(3-(N-(tert-butyl)sulfamoyl)phenyl)-4-(N-cyclopropylsulfamoyl)-2-(6-azaspiro[2.5]octan-6-yl)benzamide], the half-inhibitory concentration (IC50) amounted to 0.036 µM. The same measure for `CC(C)(C)NS(=O)(=O)c1cccc(NC(=O)c2ccc(S(=O)(=O)NC(C)(C)CO)cc2N2CCC3(CC2)CC3)c1` [Example 107-1, N-(3-(N-(tert-butyl)sulfamoyl)phenyl)-4-(N-(1-hydroxy-2-methylpropan-2-yl)sulfamoyl)-2-(6-azaspiro[2.5]octan-6-yl)benzamide]: 0.06 µM; for `CC(C)(C)NS(=O)(=O)c1cccc(NC(=O)c2ccc(NC(C)(C)CO)cc2N2CCC3(CC2)CC3)c1` [Example 110, N-(3-(N-(tert-Butyl)sulfamoyl)phenyl)-4-((1-hydroxy-2-methylpropan-2-yl)amino)-2-(6-azaspiro[2.5]octan-6-yl)benzamide]: 0.058 µM. In the case of `CC(C)(C)NS(=O)(=O)c1cccc(NC(=O)c2ccc(C(=O)NC(C)(C)CO)cc2N2CCC3(CC2)CC3)c1` [Example 111-3, N^1-(3-(N-(tert-butyl)sulfamoyl)phenyl)-N^4-(1-hydroxy-2-methylpropan-2-yl)-2-(6-azaspiro[2.5]octan-6-yl)terephthalamide], the IC50 was 0.272 µM.

In the case of `CC(C)(C)NS(=O)(=O)c1cccc(NC(=O)c2ccc(NCCO)cc2N2CCC3(CC2)CC3)c1` [Example 110-1, N-(3-(N-(tert-butyl)sulfamoyl)phenyl)-4-((2-hydroxyethyl)amino)-2-(6-azaspiro[2.5]octan-6-yl)benzamide], the IC50 came to 0.134 µM. Consider `O=C(Nc1ccc(NS(=O)(=O)CCO)cc1N1CCC2(CC1)CC2)c1cccc(N2CCCCC2)c1` [Example 115, N-(4-((2-Hydroxyethyl)sulfonamido)-2-(6-azaspiro[2.5]octan-6-yl)phenyl)-3-(piperidin-1-yl)benzamide], for which the concentration for half-maximal inhibition (IC50) was 0.026 µM. Regarding `CNC(=O)c1ccc(C(=O)Nc2cccc(S(=O)(=O)NC(C)(C)C)c2)c(N2CCC3(CC2)CC3)c1` [Example 111-1, N^1-(3-(N-(tert-butyl)sulfamoyl)phenyl)-N^4-methyl-2-(6-azaspiro[2.5]octan-6-yl)terephthalamide], the IC50 stood at 0.132 µM. With `CN(CCO)C(=O)c1ccc(C(=O)Nc2cccc(S(=O)(=O)NC(C)(C)C)c2)c(N2CCC3(CC2)CC3)c1` [Example 111-2, N^1-(3-(N-(tert-butyl)sulfamoyl)phenyl)-N^4-(2-hydroxyethyl)-N^4-methyl-2-(6-azaspiro[2.5]octan-6-yl)terephthalamide], the IC50 amounted to 0.201 µM. For the molecule `Cn1cc(-c2ccc(C(=O)Nc3cccc(S(=O)(=O)NC(C)(C)C)c3)c(N3CCC4(CC3)CC4)c2)cn1` [Example 109-2, N-(3-(N-(tert-butyl)sulfamoyl)phenyl)-4-(1-methyl-1H-pyrazol-4-yl)-2-(6-azaspiro[2.5]octan-6-yl)benzamide], the half-inhibitory concentration (IC50) was 1.09 µM. In the case of `CC(C)(C)NS(=O)(=O)c1cccc(NC(=O)c2ccc(C3(O)COC3)cc2N2CCC3(CC2)CC3)c1` [Example 100-15, N-(3-(N-(tert-butyl)sulfamoyl)phenyl)-4-(3-hydroxyoxetan-3-yl)-2-(6-azaspiro[2.5]octan-6-yl)benzamide], the 50% inhibitory concentration (IC50) was determined as 0.088 µM. On to `CC(C)(C)NS(=O)(=O)c1cccc(NC(=O)c2ccc(C(=O)NCCO)cc2N2CCC3(CC2)CC3)c1` [Example 111, N-(3-(N-(tert-Butyl)sulfamoyl)phenyl)-N^4-(2-hydroxyethyl)-2-(6-azaspiro[2.5]octan-6-yl)terephthalamide], for which the 50% inhibitory concentration (IC50) is 0.124 µM.

As for `CC(C)(CO)Nc1cccc(NC(=O)c2ccc(NS(=O)(=O)C3(C)CC3)cc2N2CCC3(CC2)CC3)c1F` [Example 101-2, N-(2-fluoro-3-((1-hydroxy-2-methylpropan-2-yl)amino)phenyl)-4-((1-methylcyclopropane)-1-sulfonamido)-2-(6-azaspiro[2.5]octan-6-yl)benzamide], the IC50 worked out at 0.298 µM.
